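Cultured in 96-well plates, cells were exposed to test compound for 48 hours across five concentrations. GI50 = concentration required for 50% inhibition of growth. Definition used: TGI = concentration required for complete inhibition of growth.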

Some test systems named below: LXFL 529 NSCLC; DMS 273 small cell lung; KM20L2 colon; DMS 114 small cell lung; HS 578T breast; PC-3 prostate; MDA-MB-435; MCF7 breast; BT-549 breast; NCI/ADR-RES ovarian.
Holding throughout (test): DTP human tumour cell line panel, 48 h

What is called TGI is the concentration giving total growth inhibition. Higher therefore signals lower sensitivity of the cells. Turning to `COC(=O)/C(=C/c1ccc(OC)cc1)C(C(=O)O)=C1CCCCC1`, the TGI with LXFL 529 NSCLC, with DMS 273 small cell lung and with KM20L2 colon was over 100 µM in each case.
As for `COc1cc2c3c(c1OC)C(=O)C=C3N(S(=O)(=O)c1ccc(C)cc1)CC2`, the TGI in the assay with LXFL 529 NSCLC, in the assay on DMS 114 small cell lung, in the assay on DMS 273 small cell lung and in the assay on KM20L2 colon was over 100 µM each time.
`CCCCCCCCCC(=O)NC(Cc1ccc(O)cc1)C(=O)NCCCNCCCCNCCCNC(=O)[C@@H](N)CCCN=C(N)N` (stereo partly drawn): the TGI in the assay with LXFL 529 NSCLC is over 100 µM; with DMS 114 small cell lung it was over 100 µM; with DMS 273 small cell lung it was 42.9 µM; in the assay with KM20L2 colon, over 100 µM.
Regarding `O=C(O)c1ccc(Nc2nc3nn(Cc4ccccc4)cc3c(=O)s2)cc1`, the TGI with LXFL 529 NSCLC, with DMS 114 small cell lung, in the assay with DMS 273 small cell lung and in the assay with KM20L2 colon was over 100 µM throughout.
For `O=c1[nH]c(=O)n(C2CC(O)C(CO)O2)cc1COCC(F)(F)F` (stereo not drawn), the TGI in the assay with LXFL 529 NSCLC, with DMS 114 small cell lung, with DMS 273 small cell lung and in the assay with KM20L2 colon was over 100 µM throughout.
As to `C/C(O)=C(\N=O)C(=O)NCc1ccccc1`, the TGI with LXFL 529 NSCLC, in the assay with DMS 114 small cell lung, in the assay with DMS 273 small cell lung and with KM20L2 colon was over 100 µM in each case.
As to `COc1cccc2nc3c(C(=O)NCCN(C)C)cccc3nc12`, the TGI in the assay with LXFL 529 NSCLC is 42.4 µM; with DMS 114 small cell lung it was 21 µM; in the assay with DMS 273 small cell lung it was over 100 µM; in the assay with KM20L2 colon, 36.8 µM.
For the compound `CC1(C)C(=O)C(=Cc2ccco2)C1=O`, the TGI with LXFL 529 NSCLC and in the assay on DMS 114 small cell lung was over 100 µM in each case.
As for `COC(=O)CC(=O)NCC1=CCC(=O)CC1`, the TGI with LXFL 529 NSCLC, in the assay on DMS 114 small cell lung and in the assay with DMS 273 small cell lung was over 100 µM each time.
With `OC12CCC3(O)c4ccccc4C3C1c1ccccc12` (stereo not drawn), the TGI in the assay with LXFL 529 NSCLC, in the assay on DMS 273 small cell lung and in the assay on KM20L2 colon was over 100 µM each time.
For `COc1cc2c(c(OC)c1OC)-c1ccc(SC)c(=O)cc1C(CC(=O)Oc1cccc(F)c1)C2` (stereo not drawn), the TGI in the assay on LXFL 529 NSCLC is over 40.8 µM; with DMS 114 small cell lung it was 1.07 µM; in the assay with KM20L2 colon it was 0.225 µM.
As to `N#C/C(=C\c1ccccc1)C(NO)Nc1ccccc1` (stereo not drawn), the TGI with LXFL 529 NSCLC, in the assay with DMS 273 small cell lung and with KM20L2 colon was over 100 µM in each case.
Turning to `C=Cc1c(C)c2cc3[nH]c(cc4nc(cc5nc(cc1[nH]2)C(C)=C5CCC(=O)N(CC)CC)C(CCC(=O)N(CC)CC)=C4C)c(C)c3C=C`, the TGI in the assay with LXFL 529 NSCLC and in the assay with KM20L2 colon was over 100 µM in each case.
Take `CCC(=O)C(C(=O)CC)c1c(OC(=O)c2ccccc2)ccc(O)c1C(=O)OC`: the TGI in the assay with LXFL 529 NSCLC, with DMS 273 small cell lung and in the assay on KM20L2 colon was over 100 µM throughout.
Take `CC(=O)NC1=C(N)C(=O)c2ccccc2C1=O`: the TGI with LXFL 529 NSCLC was over 100 µM; in the assay on DMS 114 small cell lung it was 28.1 µM; in the assay with DMS 273 small cell lung it was over 100 µM; in the assay on KM20L2 colon, over 100 µM.
As to `O=C(/C(=N/Nc1ccccc1)c1ccc([N+](=O)[O-])cc1)c1ccc([N+](=O)[O-])cc1`, the TGI in the assay with LXFL 529 NSCLC, with DMS 114 small cell lung, with DMS 273 small cell lung and with KM20L2 colon was over 100 µM each time.
Turning to `COC(=O)CCC(=O)N1CC1C` (stereo not drawn), the total growth inhibition concentration (TGI) in the assay with LXFL 529 NSCLC, in the assay with DMS 114 small cell lung, in the assay on DMS 273 small cell lung and in the assay on KM20L2 colon was over 100 µM in each case.
On to `COc1ccc2c(c1)[n+](=O)c(C(=O)CC(=O)C(=O)Nc1cccc(C)c1C)c(C)n2[O-]`, for which the TGI with LXFL 529 NSCLC, with DMS 114 small cell lung and with KM20L2 colon was over 100 µM throughout.
With `CC(C)C(=S)N(C)O`, the TGI in the assay on LXFL 529 NSCLC was over 100 µM; with DMS 114 small cell lung, 19.3 µM; with KM20L2 colon it was over 100 µM.
As for `Cc1ccc(C2C(Cl)C(=O)N2NC(=O)c2ccc(N)cc2)cc1` (stereo not drawn), the total growth inhibition concentration (TGI) came to 29.3 µM with LXFL 529 NSCLC, 23.3 µM in the assay on DMS 114 small cell lung, 17.4 µM in the assay on DMS 273 small cell lung and 48.2 µM in the assay with KM20L2 colon.
Take `Cc1cc2c(cc1CO)N1Cc3cc(C)c(CO)cc3N(C2)C1`: the TGI in the assay with LXFL 529 NSCLC, with DMS 114 small cell lung, with DMS 273 small cell lung and in the assay with KM20L2 colon was over 100 µM in each case.
With `O=C1C=C(Nc2ccc(S(=O)(=O)Nc3ncccn3)cc2)c2ccccc2C1=O`, the TGI is 56.6 µM in the assay on LXFL 529 NSCLC, 68.8 µM with DMS 273 small cell lung and 72.9 µM with KM20L2 colon.
For orientation: GI50 means the concentration that inhibits growth by half. For `O=C([CH-]C(=O)c1ccccc1)c1ccccc1.O=C([CH-]C(=O)c1ccccc1)c1ccccc1.O=C([CH-]C(=O)c1ccccc1)c1ccccc1.[Cl-].[Zr+4]`, in the assay with KM20L2 colon, the GI50 was 33.2 µM and the TGI was over 100 µM.
In the case of `C[C@H](NC(=O)c1c(C(F)F)nn(C)c1Oc1cccc(C(F)(F)F)c1)c1ccc(C(=O)O)cc1`, the GI50 with HS 578T breast, in the assay with PC-3 prostate, in the assay on MDA-MB-435, in the assay with MCF7 breast, in the assay with BT-549 breast and with NCI/ADR-RES ovarian was over 100 µM each time. Moreover, the TGI in the assay on HS 578T breast, in the assay on PC-3 prostate, in the assay with MDA-MB-435, in the assay with MCF7 breast, in the assay on BT-549 breast and in the assay on NCI/ADR-RES ovarian was over 100 µM throughout.
For `O=C(Oc1ccccc1)C(Br)C(Br)c1ccccc1` (stereo not drawn), the GI50 is 2.87 µM in the assay on HS 578T breast; 14.9 µM in the assay with PC-3 prostate; 1.62 µM in the assay on MDA-MB-435; 1.68 µM in the assay with MCF7 breast; 11.7 µM in the assay with BT-549 breast; 3.71 µM with NCI/ADR-RES ovarian. The TGI in the assay with HS 578T breast turned out to be 8.12 µM; with PC-3 prostate, 30.1 µM; in the assay with MDA-MB-435, 3.09 µM; in the assay with MCF7 breast, 11.4 µM; in the assay on BT-549 breast, 25.6 µM; in the assay with NCI/ADR-RES ovarian it was 19.9 µM.
Consider `Nc1nc2c(ccc3ccccc32)s1`, for which the GI50 was over 100 µM with HS 578T breast; 33.7 µM with PC-3 prostate; 57.1 µM with MDA-MB-435; 78.7 µM in the assay on MCF7 breast; over 100 µM in the assay with BT-549 breast; over 100 µM with NCI/ADR-RES ovarian. For the same compound, the concentration for total growth inhibition (TGI) in the assay on HS 578T breast, in the assay with PC-3 prostate, with MDA-MB-435, with MCF7 breast, in the assay on BT-549 breast and in the assay on NCI/ADR-RES ovarian was over 100 µM each time.

Source of the values: PubChem BioAssay (NCI).
